Reference: patent US20200102293A1, “LDHA ACTIVITY INHIBITORS” (ARCTIC PHARMA AS, priority 2017, published 2020)

Experiments:
LDHB = LDHB (Homo sapiens, UniProt P07195); assay: Coupled diaphorase assay, LDHB; format: biochemical; details: 6 nM LDHB, 500 μM lactate, 150 μM NAD+, lactate to pyruvate direction
Source text: (§1) The inhibitory properties of the compounds were investigated using a coupled enzyme assay that links the lactate dehydrogenase (LDH) reaction to the production of fluorescent resorufin by diaphorase.
(§2) Human lactate dehydrogenases (LDH) catalyze the reversible interconversion between pyruvate and lactate. LDH is capable of catalyzing both the forward (pyruvate to lactate) and the reverse (lactate to pyruvate) reaction, using either NADH or NAD+ as cofactor. The reaction proceeds in either direction dependent on various factors, such as substrate availability, the presence of necessary cofactors, temperature and pH. Different isoforms (LDH A, B, and C) of the enzyme favor different reaction directions—LDHA prefers the conversion from pyruvate to lactate, whereas LDHB preferentially oxidizes lactate to pyruvate.
(§3) The coupled assay relies on the oxidation of NAD^+ to NADH throughout the conversion of lactate to pyruvate by LDH (isoforms A, B and C). The produced NADH serves as cofactor in the diaphorase reaction, which reduces non-fluorescent resazurin to fluorescent resorufin. Therefore, the assay indirectly monitors the rate of pyruvate production. Although the consumption of NADH can be directly monitored due to the intrinsic fluorescence of the molecule (excitation: 340 nm, emission: 460 nm) there are problems linked to the direct readout method. […] Shifting the assay to longer wavelengths by coupling the LDH reaction to the conversion of resazurin to fluorescent resorufin by diaphorase reduces this compound interference. The assay direction was thus chosen to provide a robust and reliable assay.
(§4) Compounds were tested in duplicates using 2-fold, 3-fold or 4-fold serial dilutions including 11 individual concentrations, starting from 5000 μM to 30 μM. […] The controls allowed for the calculation of the percentage inhibition for each data point. […] Enzyme solution leading to final concentrations of 4-7 nM LDHA or 6 nM LDHB, as well as 0.2 U/mI diaphorase in the reaction well was dispensed into 384-well plates (Greiner bio-one) using a CyBi®-SELMA robotic pipettor. Compound dilutions and the enzyme were incubated for at least 20 min at room temperature. […] The reaction was quenched by the addition of a stop solution (final concentrations: 20 mM EDTA, 400 mM NaCl, 40 mM pyruvate). Fluorescence was read out after 5 min of incubation at an excitation wavelength of 560 nm and an emission wavelength of 590 nm on a Perkin Elmer Victor X plate reader.
(§5) Therefore, an enzyme solution only containing diaphorase was incubated with the compound dilution series.
(§6) Dose response curves were fitted in KaleidaGraph (www.synergy.com) or Dotmatics software package (www.dotmatics.com) using a standard 4-parameter fit (Levenberg-Marquardt fitting procedure), resulting in IC50 values for the test compounds.

LDHA = LDHA (Homo sapiens, UniProt P00338); assay: Coupled diaphorase assay, LDHA; format: biochemical; details: 4-7 nM LDHA, 500 μM lactate, 150 μM NAD+, lactate to pyruvate direction
Source text: as §1, §2, §3, §4, §5, §6

[1] = test system: MIA PaCa-2 human pancreatic cells; details: MIA PaCa-2 cells; cited from earlier work
[2] = in vivo; cited from earlier work
LDH = details: in vitro; cited from earlier work
[3] = test system: mice with temporal-lobe epilepsy; details: directly injected into the hippocampus; cited from earlier work

Chain of LDHB (P07195 whole entry): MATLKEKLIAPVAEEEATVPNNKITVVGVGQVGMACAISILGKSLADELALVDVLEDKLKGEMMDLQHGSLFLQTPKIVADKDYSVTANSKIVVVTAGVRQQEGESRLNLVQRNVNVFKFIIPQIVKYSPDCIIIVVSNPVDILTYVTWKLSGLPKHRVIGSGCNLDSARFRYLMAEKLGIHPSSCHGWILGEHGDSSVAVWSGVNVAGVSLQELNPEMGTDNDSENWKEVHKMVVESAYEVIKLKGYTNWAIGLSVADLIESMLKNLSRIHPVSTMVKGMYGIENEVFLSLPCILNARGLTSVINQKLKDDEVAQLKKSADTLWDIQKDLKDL

**Q.** Which IC50 (LDHB) does the source give for `CCOC(=O)OC1=C(Sc2ccccc2Cl)C(=O)NC(c2ccc(Br)cc2)(c2ccsc2)C1` (stereo not drawn) [Example 1, 2-(4-bromophenyl)-5-[(2-chlorophenyl)sulfanyl]-6-oxo-2-(thiophen-3-yl)-1,2,3,6-tetrahydropyridin-4-yl ethyl carbonate] here?
**A.** The IC50 was greater than 200 µM.

**Q.** What about the IC50 (LDHA) of the same compound?
**A.** The IC50 was 1 to 100 µM.

**Q.** Which IC50 (LDHA) does the source give for `CC(C)COC(=O)OC1=C(Sc2ccccc2Cl)C(=O)NC(c2ccc(N3CCOCC3)cc2)(c2ccsc2)C1` (stereo not drawn) [Example 2, 5-((2-chlorophenyl)thio)-2-(4-morpholinophenyl)-6-oxo-2-(thiophen-3-yl)-1,2,3,6-tetrahydropyridin-4-yl isobutyl carbonate] here?
**A.** Its IC50 is greater than 200 µM.

**Q.** What does the source list for `CCOC(=O)OC1=C(Sc2ccccc2Cl)C(=O)NC(c2ccsc2)(c2cccc(Br)n2)C1` (stereo not drawn) [Example 3, 6′-bromo-5-((2-chlorophenyl)thio)-6-oxo-2-(thiophen-3-yl)-1,2,3,6-tetrahydro-[2,2′-bipyridin]-4-yl ethyl carbonate]?
**A.** IC50 (LDHB): > 200 µM; IC50 (LDHA): > 200 µM

**Q.** With `COCCOC(=O)OC1=C(Sc2ccccc2Cl)C(=O)NC(c2ccsc2)(c2cccc(OCC3CCCC3)n2)C1` (stereo not drawn) [Example 4, 5-((2-chlorophenyl)thio)-6′-(cyclopentylmethoxy)-6-oxo-2-(thiophen-3-yl)-1,2,3,6-tetrahydro-[2,2′-bipyridin]-4-yl (2-methoxyethyl) carbonate] as the compound, how does the IC50 (LDHB) read?
**A.** Its IC50 is greater than 200 µM.

**Q.** And the IC50 (LDHA)?
**A.** The IC50 was greater than 200 µM.

**Q.** Which IC50 (LDHA) does the source give for `COC(=O)OC1=C(Sc2ccccc2Cl)C(=O)NC(c2ccc(N3CCOCC3)cc2)(c2ccsc2)C1` (stereo not drawn) [Example 5, 5-((2-chlorophenyl)thio)-2-(4-morpholinophenyl)-6-oxo-2-(thiophen-3-yl)-1,2,3,6-tetrahydropyridin-4-yl methyl carbonate] here?
**A.** The IC50 was 1 to 100 µM.

**Q.** What does the source list for `COC(=O)OC1=C(Sc2ccccc2Cl)C(=O)NC(c2ccsc2)(c2ccc(Br)cn2)C1` (stereo not drawn) [Example 6, 5′-bromo-5-((2-chlorophenyl)thio)-6-oxo-2-(thiophen-3-yl)-1,2,3,6-tetrahydro-[2,2′-bipyridin]-4-yl methyl carbonate]?
**A.** IC50 (LDHB): > 200 µM; IC50 (LDHA): > 200 µM

**Q.** Which results are given for `CCCCCCCCCC(=O)OC1=C(Sc2ccccc2Cl)C(=O)NC(c2ccsc2)(c2cccc(OC3COC3)n2)C1` (stereo not drawn) [Example 7, 5-((2-chlorophenyl)thio)-6′-(oxetan-3-yloxy)-6-oxo-2-(thiophen-3-yl)-1,2,3,6-tetrahydro-[2,2′-bipyridin]-4-yl decanoate]?
**A.** IC50 (LDHB): 100 to 200 µM; IC50 (LDHA): 1 to 100 µM

**Q.** Which IC50 (LDHB) does the source give for `O=C1CC(c2ccsc2)(c2cccc(OCC3CCCC3)n2)NC(=O)C1Sc1ccccc1Cl` (stereo not drawn) [Example 9, 3-((2-chlorophenyl)thio)-6-(6-(cyclopentylmethoxy)pyridin-2-yl)-6-(thiophen-3-yl)piperidine-2,4-dione, reference compound] here?
**A.** Its IC50 is 1 to 100 µM.

**Q.** And the IC50 (LDHA)?
**A.** The IC50 was 1 to 100 µM.

**Q.** With `O=C1CC(c2ccc(N3CCOCC3)cc2)(c2ccsc2)NC(=O)C1Sc1ccccc1Cl` (stereo not drawn) [GNE-140] as the compound, how does the “time of continuous LDHA inhibition until cell death” value [1] read?
**A.** The value was no less than 2 days.

**Q.** And the clearance [2]?
**A.** Its clearance is “rapid clearance”.

**Q.** For `NC(=O)C(=O)O` [Oxamate], which “concentration range inhibiting LDH enzyme activity” value (LDH) is on record?
**A.** The value was “mM range”.

**Q.** And the effect on seizures [3]?
**A.** The effect on seizures was “suppress their seizures”.
